Molecular target: HIV-1 RT (Human immunodeficiency virus type 1 group M subtype B, UniProt P03366)
Test: Steady-state competition assay, IC50 determination
Type: biochemical
Details: dTTP incorporation, ratio of IC50 values

SMILES: Cc1cc(C#CCOCCOCCOCCOCCOCC#Cc2cn([C@H]3C=C[C@@H](COP(=O)(O)OP(=O)(O)OP(=O)(O)O)O3)c(=O)[nH]c2=O)cc(C)c1Oc1ccnc(Nc2ccc(C#N)cc2)n1 [d4TTP-4PEG-TMC, d4U-Propynyl-4-PEG-propynyl-TMC-triphosphate]
- fold improvement of polymerization inhibition over propargyl-4PEG-TMC: 40 fold
- fold improvement of polymerization inhibition relative to the TMC-derivative: approximately 4.3 fold
- fold improvement of polymerization inhibition relative to the TMC-derivative (listed as triphosphate of d4T-4PEG-TMC): 4.3 fold

SMILES: C#CCOCCOCCOCCOCCOCC#Cc1cc(C)c(Oc2ccnc(Nc3ccc(C#N)cc3)n2)c(C)c1 [propargyl-4PEG-TMC, 4-[4-(4-{3-[2-(2-{2-[2-(Prop-2-ynyloxy)ethoxy]ethoxy}ethoxy)-ethoxy]prop-1-ynyl}-2,6-dimethylphenoxy)pyrimidin-2-ylamino]-benzonitrile]
- fold decrease in potency relative to the TMC-derivative: 10 fold

Reference: paper PMC3733247 (Journal of medicinal chemistry, 2013)
